# Measurements as given in PMC8111326 (Journal of Molecular Endocrinology, 2021).
# Where a name gives a salt, the structure may show the parent alone. Read-outs that look alike come from different tables or passages of the source.
# Assays:
# transmitter release = details: co-administered with calcium chelator BAPTA/AM; ref Di Virgilio et al. 1988; cited from earlier work
# [1] = tested on: α-MSH-induced [Ca2+]i in HEK293 cells; details: cited from earlier work
compound,measurement,setting,value
"ethylene glycol-bis (β-aminoethyl ether)-N,N,N′,N′-tetraacetic acid [EGTA]",EGTA chelation of calcium in specific Rmin wells,"[Ca2+]i in HEK293 cells; EGTA 5.5 mM final, cells co-loaded with Fura-2/AM and 10 µM EGTA in DMEM, probenecid 1 mM in esterase buffer, three independent experiments",chelated calcium in the presence of either Ca^2+-free-HG buffer or Ca^2+-free-Ward buffer
same,"effect of EGTA injection on basal calcium signal, optimised assay conditions (with probenecid)","[Ca2+]i in HEK293 cells; cell monolayers, EGTA 10 µL of 165 mM stock",did not reduce basal calcium signal
same,"EGTA effect on fluorescence ratio (340/380), specific Rmin wells","[Ca2+]i in HEK293 cells; cells depleted of calcium by EGTA prior to imaging, calcium-free buffer",rapid small decrease in fluorescence 340/380 ratio
same,"EGTA effect on fluorescence ratio (340/380), with probenecid",[Ca2+]i in HEK293 cells; in the presence of probenecid,either has no effect on fluorescence ratio or increases the fluorescence ratio
CCCN(CCC)S(=O)(=O)c1ccc(C(=O)O)cc1 [probenecid],interference with EGTA chelation of calcium,"[Ca2+]i in HEK293 cells; probenecid 1 mM in CLB-HG, Ca2+-free buffer-HG, -Ward or -Ion Optix, Supplementary Fig. 7",interfered with EGTA chelation of calcium
same,interference with EGTA chelation of calcium,"[Ca2+]i in HEK293 cells; probenecid 0.5–2.5 mM, pluronic acid, Supplementary Fig. 5",interferes with EGTA chelation of calcium
same,retention of Fura-2 in cells,HEK293 cells; probenecid 1 mM vs 2.5 mM,1 mM probenecid worked as efficiently as 2.5 mM for Fura-2 retention
same,retention of Fura-2/AM and Fura-2 in cells,"HEK293 cells; probenecid 2.5 mM, three independent experiments",retains Fura-2/AM and Fura-2 in HEK293 cell monolayers
same,effect on transmitter release,transmitter release,profound and prolonged attenuation of transmitter release
cholera toxin,effect on α-MSH-induced [Ca2+]i,[1],significantly attenuated
"C[C@H](CCC(=O)O)C[C@H](C)C[C@H](C)C(=O)/C=C(\O)[C@H](C)C[C@H](C)C/C=C/[C@@H](C)[C@@H](O)[C@@H](C)[C@@H](O)C[C@@H]1CC[C@@](C)([C@H]2CC[C@@](C)([C@@H](C)O)O2)O1 [ionomycin, ionomycin calcium salt]",ionomycin effect on calcium signal,"[Ca2+]i in HEK293 cells; presence or absence of probenecid, ionomycin 10 µL of 0.33 mM stock in DMSO",rapid increase in calcium signal
